Results on three molecules are retold here after patent US20190153409A1, “COMPOSITIONS COMPRISING PARTICLES AND METHODS FOR TREATING CANCER” (priority 2017, published 2019).

Data set [1] relates to HCT116 cells.
In a further data set the test system is p53. Briefly: p53 transcription activity: GFP reporter in HCT116 cells transfected with RGC-mazE-IRES-GFP plasmid. The class given is cell-based, human.
Data set [2] relates to HCT116 cells. Briefly: Cell toxicity in transfected HCT116 cells.
The target of data set [3] is mCherry-MazF (E. coli MazF ribonuclease fused to the C terminus of the monomeric red fluorescence protein mCherry) (E. coli) (UniProt P0AE70). Briefly: cell-based or functional assay.
mCherry-MazF (E. coli MazF ribonuclease fused to the C terminus of the monomeric red fluorescence protein mCherry) (E. coli), sequence (P0AE70 whole entry, the tested form may be a part): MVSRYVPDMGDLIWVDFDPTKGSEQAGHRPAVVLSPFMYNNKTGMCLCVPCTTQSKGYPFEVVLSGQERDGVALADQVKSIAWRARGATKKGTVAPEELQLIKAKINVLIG

Protocol for p53: In order to test the ability of p53 to bind to its responsive element and stimulate transcription, HCT116 cells were transfected with RGC-mazE-IRES-GFP plasmid. Since p53 is degraded in un-activated cells, the present inventors used Quercetin, a ubiquitous bioactive plant flavonoid that is able to induce p53 phosphorylation, stabilization and total p53 protein accumulation. Another widely used p53 inducer is the antimetabolite agent 5-FU. P53 transcription activity was evaluated by measuring the expression of the downstream reporter gene, GFP.

`O=c1[nH]cc(F)c(=O)[nH]1` [5-FU]: the cell toxicity entry with HCT116 cells [1] is “no toxicity”. For the same molecule, the GFP expression levels result with p53 (10 μM, compared with Quercetin) is reported as “significantly higher expression levels of GFP”. Consider `O=c1c(O)c(-c2ccc(O)c(O)c2)oc2cc(O)cc(O)c12` [Quercetin], for which, in the data set on p53 (50 μM), the “increase of GFP expression” value was “about 10 folds”. In addition, in the data set with HCT116 cells [2], the “cell death (cell toxicity)” value amounted to 60%. As to “E. coli antitoxin MazE (from UniProt P0AE72 1-82)”, in data set [3], the yield of mCherry-MazF adenovirus in HEK293 packaging cells that constitutively express MazE, against parental HEK293 cells (orders of magnitude) amounted to 2.
